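Compound exposure: 48 hours, 5 concentrations, 96-well plates. GI50 = concentration required for 50% inhibition of growth.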 The source made the active and inactive calls. No stated cut-off is given here; in the data, active = GI50 up to about 1.1 µM and inactive = higher.
Tests used:
Assay in all cases: NCI anticancer screen, dose series, 48 h
SK-MEL-28 = tested on: SK-MEL-28
A549 = tested on: A549
KM12 = tested on: KM12
HL-60 = tested on: HL-60
DLD-1 = tested on: DLD-1
DMS-273 = tested on: DMS-273
SW-620 = tested on: SW-620
HOP-92 = tested on: HOP-92
CCRF-CEM = tested on: CCRF-CEM
UACC-257 = tested on: UACC-257
OVCAR-3 = tested on: OVCAR-3
XF498 = tested on: XF498
HOP-62 = tested on: HOP-62
SNB-19 = tested on: SNB-19
EKVX = tested on: EKVX
SK-MEL-2 = tested on: SK-MEL-2
K562 = tested on: K562
HCT-116 = tested on: HCT-116
ACHN = tested on: ACHN
HCC 2998 = tested on: HCC 2998
HCT-15 = tested on: HCT-15
SR = tested on: SR
UACC-62 = tested on: UACC-62
SF-539 = tested on: SF-539
U-251 = tested on: U-251
OVCAR-8 = tested on: OVCAR-8
SF-295 = tested on: SF-295
M14 = tested on: M14
RXF 393 = tested on: RXF 393
NCI-H522 = tested on: NCI-H522
Malme-3M = tested on: Malme-3M
CAKI-1 = tested on: CAKI-1
M19-MEL = tested on: M19-MEL
OVCAR-4 = tested on: OVCAR-4
UO-31 = tested on: UO-31
KM-20L2 = tested on: KM-20L2
OVCAR-5 = tested on: OVCAR-5
SNB-78 = tested on: SNB-78
SN12C = tested on: SN12C
TK-10 = tested on: TK-10
RPMI-8226 = tested on: RPMI-8226
COLO 205 = tested on: COLO 205
HOP-18 = tested on: HOP-18
MOLT-4 = tested on: MOLT-4
NCI-H226 = tested on: NCI-H226
SNB-75 = tested on: SNB-75
LOX IMVI = tested on: LOX IMVI
786-0 = tested on: 786-0
IGROV-1 = tested on: IGROV-1
NCI-H460 = tested on: NCI-H460
DMS-114 = tested on: DMS-114
HT-29 = tested on: HT-29
NCI-H23 = tested on: NCI-H23
SK-OV-3 = tested on: SK-OV-3
A498 = tested on: A498
SF-268 = tested on: SF-268
SK-MEL-5 = tested on: SK-MEL-5
LXFL 529 = tested on: LXFL 529

CC(C)[Si](OCC1CC(C#N)OC(C)(C)O1)(C(C)C)C(C)C (centres undefined)
GI50 (SK-MEL-28): 39.4 µM (inactive) | GI50 (A549): 30.8 µM (inactive) | GI50 (KM12): 17.5 µM (inactive) | GI50 (HL-60): 13 µM (inactive) | GI50 (DLD-1): 44.4 µM (inactive) | GI50 (DMS-273): 19.2 µM (inactive) | GI50 (SW-620): 18.9 µM (inactive) | GI50 (HOP-92): 21.7 µM (inactive) | GI50 (CCRF-CEM): 19.5 µM (inactive) | GI50 (UACC-257): 17.3 µM (inactive) | GI50 (OVCAR-3): 15.6 µM (inactive) | GI50 (XF498): 21 µM (inactive) | GI50 (HOP-62): 23.7 µM (inactive) | GI50 (SNB-19): 22 µM (inactive) | GI50 (EKVX): 30.3 µM (inactive) | GI50 (SK-MEL-2): 16.2 µM (inactive) | GI50 (K562): 19 µM (inactive) | GI50 (HCT-116): 16.5 µM (inactive) | GI50 (ACHN): 16 µM (inactive) | GI50 (HCC 2998): 21.2 µM (inactive) | GI50 (HCT-15): 27.8 µM | GI50 (SR): 18.1 µM (inactive) | GI50 (UACC-62): 30.1 µM (inactive) | GI50 (SF-539): 27.1 µM (inactive) | GI50 (U-251): 15.8 µM (inactive) | GI50 (OVCAR-8): 21.1 µM (inactive) | GI50 (SF-295): 14.9 µM (inactive) | GI50 (M14): 20 µM (inactive) | GI50 (RXF 393): 17.1 µM (inactive) | GI50 (NCI-H522): 18.2 µM (inactive) | GI50 (Malme-3M): 22.9 µM (inactive) | GI50 (CAKI-1): 27.6 µM (inactive) | GI50 (M19-MEL): 25.2 µM (inactive) | GI50 (OVCAR-4): 30.3 µM (inactive) | GI50 (UO-31): 20.7 µM (inactive) | GI50 (KM-20L2): 21.9 µM (inactive) | GI50 (OVCAR-5): 44 µM (inactive) | GI50 (SNB-78): 20.5 µM (inactive) | GI50 (SN12C): 32.4 µM (inactive) | GI50 (TK-10): 39.5 µM (inactive) | GI50 (RPMI-8226): 14.2 µM (inactive) | GI50 (COLO 205): 17.3 µM (inactive) | GI50 (HOP-18): 30.5 µM (inactive) | GI50 (MOLT-4): 19.6 µM (inactive) | GI50 (NCI-H226): 19.1 µM (inactive) | GI50 (SNB-75): 31.9 µM (inactive) | GI50 (LOX IMVI): 19.3 µM (inactive) | GI50 (786-0): 18.8 µM (inactive) | GI50 (IGROV-1): 28.2 µM (inactive) | GI50 (NCI-H460): 16.5 µM (inactive) | GI50 (DMS-114): > 10 µM (inactive) | GI50 (HT-29): 14.6 µM (inactive) | GI50 (NCI-H23): 19.3 µM (inactive) | GI50 (SK-OV-3): 21.3 µM (inactive) | GI50 (A498): 6.3 µM (inactive) | GI50 (SF-268): 26.9 µM (inactive) | GI50 (SK-MEL-5): 15.5 µM (inactive)

CC(=O)OC1C/C(C)=C/CCC(C)/C=C/C2(C)CCC(C(C)(C)O)C12 (centres undefined)
GI50 (SK-MEL-28): 72.1 µM (inactive) | GI50 (A549): 53 µM (inactive) | GI50 (KM12): 51.2 µM (inactive) | GI50 (HL-60): 24.2 µM (inactive) | GI50 (DLD-1): 45.1 µM (inactive) | GI50 (DMS-273): 44.2 µM (inactive) | GI50 (SW-620): 47.5 µM (inactive) | GI50 (HOP-92): 18.5 µM (inactive) | GI50 (CCRF-CEM): 28.6 µM (inactive) | GI50 (UACC-257): 26.1 µM (inactive) | GI50 (OVCAR-3): 46.7 µM (inactive) | GI50 (XF498): 39.4 µM (inactive) | GI50 (HOP-62): 88.1 µM (inactive) | GI50 (SNB-19): > 100 µM (inactive) | GI50 (EKVX): 63.2 µM (inactive) | GI50 (SK-MEL-2): 34.4 µM (inactive) | GI50 (K562): 36.7 µM (inactive) | GI50 (HCT-116): 26.2 µM (inactive) | GI50 (ACHN): 36 µM (inactive) | GI50 (HCC 2998): 57.4 µM (inactive) | GI50 (HCT-15): 43.9 µM | GI50 (SR): 18.6 µM (inactive) | GI50 (UACC-62): 80.4 µM (inactive) | GI50 (SF-539): > 100 µM (inactive) | GI50 (U-251): 39.4 µM (inactive) | GI50 (LXFL 529): 58.5 µM (inactive) | GI50 (OVCAR-8): 57 µM (inactive) | GI50 (SF-295): 80.7 µM (inactive) | GI50 (M14): 52.6 µM (inactive) | GI50 (RXF 393): 14 µM (inactive) | GI50 (Malme-3M): 63 µM (inactive) | GI50 (CAKI-1): 59 µM (inactive) | GI50 (M19-MEL): 28.9 µM (inactive) | GI50 (OVCAR-4): 49.8 µM (inactive) | GI50 (UO-31): 37.3 µM (inactive) | GI50 (KM-20L2): 49.4 µM (inactive) | GI50 (OVCAR-5): > 100 µM (inactive) | GI50 (SNB-78): 61.9 µM (inactive) | GI50 (SN12C): 32.1 µM (inactive) | GI50 (TK-10): > 100 µM (inactive) | GI50 (RPMI-8226): 23.2 µM (inactive) | GI50 (COLO 205): 39.8 µM (inactive) | GI50 (HOP-18): > 100 µM (inactive) | GI50 (MOLT-4): 30.4 µM (inactive) | GI50 (NCI-H226): 45.1 µM (inactive) | GI50 (SNB-75): 40.7 µM (inactive) | GI50 (LOX IMVI): 39.1 µM (inactive) | GI50 (786-0): 65 µM (inactive) | GI50 (IGROV-1): 36.8 µM (inactive) | GI50 (NCI-H460): 39.2 µM (inactive) | GI50 (DMS-114): 34.6 µM (inactive) | GI50 (HT-29): 33.4 µM (inactive) | GI50 (NCI-H23): 42.5 µM (inactive) | GI50 (SK-OV-3): > 100 µM (inactive) | GI50 (A498): > 100 µM (inactive) | GI50 (SF-268): 61.7 µM (inactive) | GI50 (SK-MEL-5): 47.6 µM (inactive)

Source: ChEMBL document CHEMBL1201862, “PubChem BioAssay data set” (2004)
